The source of these data is patent US20120288482A1, “THERAPEUTIC AGENT (Y-39983) FOR CORNEAL ENDOTHELIAL DYSFUNCTION” (priority 2009, published 2012).

For assay [1], the system named is corneal endothelial wound. The assay can be described thus: Rabbit corneal endothelial wound model, topical instillation (Example 1). Format: in vivo. The note with it: 10 mM instillation, 6 times a day, 46 hours after wound creation. As to the method: In this Example, 0.95 mM (0.03 w/v%) compound (I) instillation and 0.32 mM (0.01 w/v%) compound (I) instillation obtained by diluting the above instillation with the above-mentioned vehicle were used.
As a positive control substances, Y-27632 dihydrochloride (Wako Pure Chemical Industries, Co., Ltd., Cat. #253-00513) and fasudil hydrochloride hydrate injection (Eril (registered trade mark) drip intravenous injection, Asahi Kasei Pharma) were purchased, and Y-27632 and Fasudil were each adjusted to 10 mM with phosphate-buffered saline (PBS, Invitrogen, Cat. #14190). In addition, PBS was used as a negative control substance.
Male Japanese white rabbits (body weight 2.5-3.0 kg, 21 rabbits) were purchased from Biotek Co., Ltd. and used. They are kept in individual cages at 23±3° C. temperature, at 55±10% humidity and 12 hours artificial light cycle (lighting on; 8:00 a.m., lighting off; 8:00 p.m.). One hundred grams of solid food (Labo R stock; Nosan Corp.) are provided daily to each animal. Water is supplied by automatic watering apparatus.
3. Excision of Nictitating Membrane of Animal Before starting the test, the nictitating membrane of both eyes of the animal was excised. To be specific, each animal was set in a positioner, and the ocular surface was topically anesthetized by instillation of a topical anesthesia (Benoxil instillation 0.4%, Santen Pharmaceutical Co., Ltd.). Then, the root position of the nictitating membrane was pressed with a clamp for 30 sec, and compressing mark was cut with scissors. After excision of the nictitating membrane, the antibiotic ointment (tarivid eye ointment, Santen Pharmaceutical Co., Ltd.) was instilled to prevent infection. After 4 days from the excision of the nictitating membrane, animals confirmed to have no abnormality in the external eye including the excised site were used.
The corneal thickness of the right eye of each animal was measured with an ultrasonic pachymeter (manufactured by DGH Technologies Inc., DGH-500), and the animals were divided into 4 groups such that the corneal thickness of each group was equal. The animals used for each group were as follows. • 10 mM Y-27632 group=5 eyes • 0.32 mM compound (I) group=5 eyes • 0.95 mM compound (I) group=6 eyes • 10 mM Fasudil group=5 eyes • PBS group=21 eyes (left eye)
The animals were sytemically anesthetized by intramuscular administration of Ketalar muscular injection ([…], DAIICHI SANKYO COMPANY, LIMITED., 0.6 ml) and Celactal 2% Injection (Bayer, Ltd., 0.25 ml). Then, Benoxil instillation 0.4% (Santen Pharmaceutical Co., Ltd., one drop) was instilled and the eye was opened using a lid speculum.
A 7-mm diameter stainless dowel that had been cooled in liquid nitrogen was placed on the central cornea of both eyes of 21 animals for 15 sec. to produce an ice ball in the anterior chamber and dissociate corneal endothelial cells, whereby a corneal endothelial wound was produced.
For topical instillation, after wound creation, compound (I) instillation, Y-27632 instillation or Fasudil instillation was instilled to the right eye, and PBS was instilled to the left eye 6 times a day (4 times on the day of wound production) at 50 μL per instillation. Administration interval in one day was 2 hours. […]

Assay [2] deals with cultured monkey corneal endothelial cells. The note with it: in vitro; cited from earlier work.

Regarding `O=S(=O)(c1cccc2cnccc12)N1CCCNCC1` [Fasudil], the “area of the unrepaired wound site (corneal endothelium wound area)” value in assay [1] is listed as 1.7 mm^2. Besides, in assay [2], the apoptosis result is listed as “suppression of apoptosis”, the cell adhesion entry is recorded as “promotion of cell adhesion” and the cell cycle result was “promotion of cell cycle”.
